Results taken from patent US20160319277A1, “METHODS OF IMPROVED PROTEIN PRODUCTION USING MIRNAs AND SIRNAs” (THE JOHNS HOPKINS UNIVERSITY, priority 2015, published 2016).

Key:
[1] = tested on: HEK 293 cell lines expressing luciferase, GPC3-hFc, NTSR1-GFP, SERT-GFP; assay: Validation transfection of siRNAs against ten selected genes in four HEK 293 cell lines expressing different reporter proteins; type: cell-based, human; settings: 40 nM, 1 representative siRNA per gene; for expression of reporter proteins: luciferase, GPC3-hFc, NTSR1-GFP, SERT-GFP
Description: Ten targeted genes were selected and tested in four HEK 293 cell lines expressing different reporter proteins, glycan-3 hFc-fision protein (GPC3-hFc), neurotensin receptor type 1-GFP (NTSR1-GFP) and serotonin transporter-GFP (SERT-GFP), using 1 representative siRNA for each gene. Transfection was performed in 12-well plate format. 500 μL of serum free DMEM media containing siRNA and Lipofectamine™ RNAiMax was incubated in each well for 20 min at ambient temperature and 500 μL DMEM containing 20% FBS and cells was then added for transfection. The final siRNA concentration in each well was 40 nM. Lipofectamine™ RNAiMax volume and cell seeding number in each well have been optimized for each cell line (Table 2).
5 days after transfection, clarified cell culture supernatant was used for determination of GPC3-hFc concentration by ELISA and cells were detached and counted by trypan blue exclusion using a CEDEX™ cell quantification system (Roche, Mannheim, Germany). AffiniPure™ F(ab′)2 Fragment Goat Anti-Human IgG (min X Bov, Ms, Rb Sr Prot, Cat. 109-006-170, Jackson Immunology, 5 μg/mL in PBS) was used to coat a 96-well plate (50 μL per well) at 4° C. overnight. After blocking the plate with 2% BSA in PBS, 50 μl of pre-diluted cell culture supernatant was added, and the plate was incubated at room temperature for 1 h to allow binding to occur. After the plate was washed twice with PBS containing 0.05% Tween 20, Peroxidase-conjugated AffiniPure™ Goat-anti-human IgG (Cat. 109-035-098, Jackson Immunology) was added at 1:4000 dilution (50 μL/well). Following incubation at room temperature for 1 hr, the plate was washed 4 times and signals were detected with Peroxidase Substrate System (KPL).
3 days after transfection, cells were induced with 1 μg/mL tetracycline. 24 hours later, cells from each well were detached with non-enzymatic cell dissociation buffer (Gibco, Cat. No. 13150-016) and washed twice with cold PBS. Cell densities were adjusted to 0.5 million cells/ml with PBS and then subjected to flow cytometry analysis. Green fluorescence was measured with Guava Easycyte 5HT™ and Incyte™ software (Millipore). The green fluorescence signal and cell gating were adjusted using uninduced T-REx-293-NTSR1-GFP cells, with more than 99.5% of the cells in low fluorescence range (<100). The setting was kept the same for all cell samples.

[2] = tested on: T-REx-293-NTSR1-GFP cells; assay: High-throughput human miRNA mimic library screen, image-based per cell green fluorescence (NTSR1-GFP expression); settings: per cell green fluorescence intensity; for MAD-based z-score: 72 h after transfection plus 24 h tetracycline induction
Description: T-REx-293-NTSR1-GFP cells were screened with a miRNA mimic library (Qiagen) based on Sanger miRBase™ 13.0 and consisting of 875 miRNAs mimics. For transfection, 0.8 pmol of each mimic was spotted to 384 well plate wells (Corning) and 20 μL of serum-free DMEM containing 0.1 μL of Lipofectamine™ RNAiMax (Life Technologies) was then added to each well. This lipid-miRNA mixture was incubated at ambient temperature for 30 min prior to adding 2000 cells in 20 μL of DMEM containing 20% certified FBS (Gibco). Transfected cells were incubated at 37° C. in 5% CO2 for 72 hours and induced with 1 μg/mL tetracycline for 24 hours for NTSR1-GFP expression. Cells were then fixed with 2% paraformaldehyde (Electron Microscopy Sciences), stained with Hoechst™ 33342 (Life Technologies) for 45 minutes and gently washed with PBS. Plates were imaged with an ImageXpress Micro XL™ (Molecular Devices). Total cell number and per cell green fluorescence intensity were calculated using MetaXpress™ software (Molecular Devices) employing the Multi-Wavelength Cell Scoring™ application module. […] A full column of positive control siRNA targeting GFP (GFP-22 siRNA, Qiagen) was also used as on-plate reference for transfection efficiency. The median absolute deviation (MAD)-based z-score was calculated for each sample.

HEK-GPC3-hFc cell line = assay: Validation of miRNAs with GPC3-hFc-expressing cells (ELISA and cell count); type: cell-based, human; settings: 40 nM miRNA, 6 days after transfection, versus siN.C.
Description: HEK-GPC3-hFc cell line constitutively secreting glypican-3 hFc-fusion protein (GPC3-hFc) was a gift from the National Cancer Institute of the NIH. Cells were grown in DMEM supplemented with 10% FBS in a humidified incubator set at 37° C. and 5% CO2.
Cells were transfected in 12-well plates as described above in the screening method with the following modification: 0.15 million cells were transfected with 40 nM miRNA using 6.25 ul Lipofectamine™ RNAiMax in a total volume of 1 mL of media. 6 days after transfection, cell culture supernatant was collected and cleared using centrifuge for GPC3-hFc concentration determination with ELISA and cells were detached and counted by trypan blue exclusion using a CEDEX™ cell quantification system (Roche, Mannheim, Germany). Per cell GPC3-hFc production can be calculated from overall GPC3-hFc yield and viable cell number.
AffiniPure™ F(ab′)2 Fragment Goat Anti-Human IgG (min X Bov, Ms, Rb Sr Prot, Cat. 109-006-170, Jackson Immunology) was used to coat a 96-well plate at 5 μg/mL in PBS buffer, 50 μL per well, at 4° C. overnight. After the plate was blocked with 2% BSA in PBS buffer, pre-diluted cell culture supernatant was added, and the plate was incubated at room temperature for one hour to allow binding to occur. After the plate was washed twice with PBS containing 0.05% Tween 20, Peroxidase-conjugated AffiniPure™ Goat-anti-uman IgG (Cat. 109-035-098, Jackson Immunology) was added at 1:4000 dilutions, 50 ul/well. Following incubating at room temperature for one hour, the plate was washed 4 times and detected with Peroxidase Substrate System (KPL).

NTSR1 = assay: [3H]NT binding assay on detergent-solubilized cells for functional expression of NTSR1; type: cell-based; settings: for improvement of functional expression of NTSR1 compared with siN.C.: [3H]NT binding
Description: Validation transfections were performed in 12-well plates with miScript™ miRNA mimics (Qiagen, Cat. No. 219600-S0), SilencerSelect™ Negative Control #2 and lethal control siRNA (Qiagen AllStars Cell Death Control™) served as a control for transfection efficiency. Cells were transfected as described for screening except 0.15 million cells were transfected with 40 nM miRNA using 6.25 ul Lipofectamine™ RNAiMax in a total volume of 1 mL of media. 72 hours after transfection, cells were induced with 1 μg/mL tetracycline. 24 hours later, cells from each well were detached with non-enzymatic cell dissociation buffer (Gibco, Cat. No. 13150-016) and washed twice with cold PBS. Cell densities and viability were determined by trypan blue exclusion using a CEDEX™ cell quantification system (Roche, Mannheim, Germany). Based on the counts, cell densities were adjusted to 0.5 million cells/ml with PBS and then subject to flow cytometry analysis. The remaining cells were pelleted and frozen on dry ice for [^3H]NT binding assays.
The detergents n-Dodecyl-β-D-maltoside (LM), 3-[(3-cholamidopyropyl) dimethylammonio]-1-propane sulfonate (CHAPS) and cholesteryl hemisuccinate Tris salt (CHS) were obtained from Anatrace. Cell pellets from 2 mL of suspension culture were suspended in Tris-glycerol-NaCl buffer. Then the detergents LM, CHAPS and CHS were added to give a final buffer composition of 50 mM TrisHCl pH 7.4, 200 mM NaCl, 30% (v/v) glycerol, 1% (w/v) LM, and 0.6% (w/v) CHAPS and 0.12% (w/v) CHS in a total volume of 0.5 mL. The samples were placed on a rotating mixer at 4° C. for 1 hour. Cell debris and non-solubilized material were removed by ultracentrifugation (TL100 rotor, 60 k rpm, 4° C., 30 min in Optima Max™ bench-top ultracentrifuge, Beckman), and the supernatants containing detergent-solubilized NTSR1 were used to determine the total number of expressed receptors by a detergent-based radio-ligand binding assay (see below).
Tritiated neurotensin agonist [^3H]NT ([3,11-tyrosyl-3,5-^3H(N)]-pyro[…] SEQ ID NO:27) was purchased from Perkin Elmer. Ligand-binding assays with detergent-solubilized receptors were carried out in TEBB assay buffer (50 mM Tris pH 7.4, 1 mM EDTA, 40 μg/mL bacitracin, 0.1% BSA) containing 0.1% (w/v) LM, 0.2% (w/v) CHAPS and 0.04% (w/v) CHS. For one-point assays, receptors were incubated with 2 nM [^3H]NT on ice for 1 hour in a volume of 150 μL. The concentration of [^3H]NT used was at least 5-fold above the apparent dissociation constants for detergent-solubilized NTSR1 to allow high receptor occupancy. Separation of the receptor-ligand complex from free ligand (100 μL) was achieved by centrifugation-assisted gel filtration using Bio-Spin™ 30 Tris columns (BioRad), equilibrated with RDB buffer (50 mM Tris-HCl, pH 7.4, 1 mM EDTA, 0.1% (w/v) LM, 0.2% (w/v) CHAPS, 0.04% (w/v) CHS). Non-specific [^3H]NT binding of 220 dpm was subtracted from total binding to calculate the total amount of receptors in T-REx-293-NTSR1-GFP cells. The number of functional NTSR1 was estimated by specific [^3H]NT binding assuming one ligand-binding site per receptor molecule. The number of cells in the assay was derived by cell counting at cell harvest. This approach led to the calculation of the parameter “receptors/cell”.

[3] = tested on: CMV-Luc2-HygroHEK293 cell line; assay: Validation of miRNAs with luciferase-expressing cells (ONE-Glo / CellTiter-Glo, 12-well); type: cell-based, human; settings: 40 nM miRNA, 72 h; for improvement of luciferase expression (per cell luciferase activity): 12-well, versus siN.C.
Description: CMV-Luc2-HygroHEK293 cell line constitutively expressing luciferase is purchased from Promega. Validation transfections were performed in 12-well plates with miScript miRNA mimics (Qiagen, Cat. No. 219600-S0), SilencerSelect™ Negative Control #2 and lethal control siRNA (Qiagen AllStars Cell Death Control™) served as a control for transfection efficiency. Cells were transfected in duplicates as described above in the screening method with the following modification: 0.1 million cells were transfected with 40 nM miRNA using 6.25 ul Lipofectamine™ RNAiMax in a total volume of 1 mL of media. 72 hours after transfection, 500 μL of ONE-Glo™ Reagent (Promega) was added to one set of replicates for luciferase activity quantification and 500 μL of CellTiter-Glo™ Reagent (Promega) was added to the second set of replicates for viable cell density measurement. All plates were incubated at room temperature for 20 minutes to stabilize luminescent signal and then measured with SpectraMax i3™ plate reader (Molecular Devices). Per cell luciferase production was calculated from overall luciferase activity and viable cell number.

Substance	viable cell number [1]	expression of reporter proteins [1]	Signal relative to negative control (%) [2] [%]	MAD-based z-score [2]	improvement of per cell GPC3-hFc secretion (HEK-GPC3-hFc cell line)	improvement of functional expression of NTSR1 compared with siN.C. (NTSR1)	improvement of luciferase expression (per cell luciferase activity) [3]	change of overall GPC3-hFc production (HEK-GPC3-hFc cell line)	cell growth (viable cell density) [3]	overall production of luciferase higher than negative control siN.C. [3] [%]	functional neurotensin receptor molecules per cell (NTSR1; specific [3H]NT binding, 2 nM)
INTS1 siRNA: 1 representative siRNA for gene INTS1 used in validation transfection; sequence not stated (guide AGAUCUUUGUCAAGGUGUATT; other strand without entry, further chemistry not given here; listed as Homo sapiens)	significantly reduced viable cell number	consistently improved	–	–	–	–	–	–	–	–	–
UAAUACUGUCUGGUAAAACCGU (listed as RNA, chemistry not given here; listed as Homo sapiens) [miR-429, human miRNA mimic]	–	–	212	4.2	enhanced per cell GPC3-hFc secretion	improved functional activity levels	relevant for improving luciferase expression	–	–	–	–
UAAGGUGCAUCUAGUGCAGAUAG (listed as RNA, chemistry not given here; listed as Homo sapiens) [miR-18a-5p, human miRNA mimic]	–	–	149	2.0	enhanced per cell GPC3-hFc secretion	improved functional activity levels	relevant for improving luciferase expression	effectively enhanced overall GPC3-hFc	–	–	–
PPP2R1A siRNA: 1 representative siRNA for gene PPP2R1A used in validation transfection; sequence not stated (guide CUUCGACAGUACUUCCGGATT; other strand without entry, further chemistry not given here; listed as Homo sapiens)	minimal negative effects	consistently improved	–	–	–	–	–	–	–	–	–
CACUGGCUCCUUUCUGGGUAGA (listed as RNA, chemistry not given here; listed as Homo sapiens) [miR-892b, human miRNA mimic]	–	–	201	3.7	–	not associated with enhanced binding activity	239%	–	inhibited cell growth	188	–
UUGGGGAAACGGCCGCUGAGUG [miR-2110]	–	–	160	2.3	enhanced per cell GPC3-hFc secretion	–	relevant for improving luciferase expression	–	–	–	13.8 million functional neurotensin receptor molecules per cell
